Series [1] deals with acetylcholine-induced abdominal constriction in mice. As to the kind of experiment: acetylcholine-induced abdominal constriction test (Ach), antinociceptive activity. In kind it is in vivo. The conditions noted are these: for ED50: Mus musculus, oral administration. The text has this:
(§1) The test procedures used to determine the analgesic activity of the compounds have been described in detail in the prior art and are as follows: The acetylcholine-induced abdominal constriction test, which is a primary analgesic screening test designed to measure the ability of a test agent to suppress acetylcholine-induced abdominal constriction in mice, described by Collier et al., Brit. J. Pharmacol, Chemotherap. 32, 295 (1968) and the rotorod performance test, which is a test designed to measure neurotoxicity of a test compound, described by Dunham et al., J. Pharm. Sci. 46, 206-209 (1957).
(§2) The 4-arylcarbonyl-1-[(4-morpholinyl)-lower-alkyl]-1H-indoles of the invention were tested in the acetylcholine-induced abdominal constriction test (Ach), which gives a measure of antinociceptive activity, and the rotorod assay (R.R.), which gives a measure of neurotoxicity and CNS impairment. The results, expressed in terms of the ED50 's obtained on oral administration in the acetylcholine test and as the ratio of the rotorod (R.R.):Ach ED50 's, are given in the following table: […]

A short description of series [2]: rotorod performance test (R.R.), neurotoxicity and CNS impairment, as ratio to Ach. The conditions noted are these: mouse, in vivo; ratio of rotorod (R.R.):Ach ED50's; Ach ED50 on oral administration.
Text: as §1, §2

As for `COc1ccc(C(=O)c2cccc3c2ccn3CCN2CCOCC2)cc1.Cl` [Ex. 1A, 4-(4-methoxybenzoyl)-1-[2-(4-morpholinyl)ethyl]-1H-indole hydrochloride], the “Ach (percent effect)” value in series [1] (93%/100(s.c.): at 100 (dose unit not given), s.c.) was 93%. The molecule further showed an ED50 in series [1] of 46 mg/kg. The selectivity ratio in series [2] came out at 3.1.
The molecule `COc1ccc(C(=O)c2cccc3c2ccn3CCCN2CCOCC2)cc1.Cl` [Ex. 1B, 4-(4-methoxybenzoyl)-1-[3-(4-morpholinyl)propyl]-1H-indole hydrochloride] yielded an ED50 in series [1] of 63 mg/kg. Moreover, the selectivity ratio in series [2] was found to be 2.8.
In series [1], `O=C(c1cccc2ccccc12)c1cccc2c1ccn2CCN1CCOCC1` [Ex. 1C, 1-[2-(4-morpholinyl)ethyl]-4-(1-naphthylcarbonyl)-1H-indole p-toluenesulfonate hydrate 3:1] had an ED50 of 16 mg/kg.
